Laboratory results taken from article PMC12696090, “Enzyme engineering of cytochrome P450 RosC provides mechanistic insights into factors controlling iterative oxidation” (Applied Microbiology and Biotechnology, 2025).

Experiments:
[1] = target: T1, RosC lacking the N-terminal 21 residues (Micromonospora rosaria, UniProt I7HHD0); test: X-ray crystal structure; type: binding; conditions: 2.3 Å; active site, C-20 oriented toward heme iron
T1 construct: N-terminal 21 residues deleted, His-tag cut with thrombin, expressed in E. coli BL21(DE3); crystallization construct

NHis-RosC [2] = target: T2, NHis-RosC (Micromonospora rosaria, UniProt I7HHD0, P107S/L176Q); test: spectral substrate-binding assay (difference spectra); conditions: 50 mM Tris-HCl pH 7.5, 20% glycerol, room temperature, 1 μM enzyme; Type II spectral change
T2 construct: full-length, N-terminal His-tag kept (pET28b), expressed in E. coli BL21(DE3)

NHis-RosC [3] = target: T3, NHis-RosC (Micromonospora rosaria, UniProt I7HHD0); test: as above; conditions: 50 mM Tris-HCl pH 7.5, 20% glycerol, room temperature, 1 μM enzyme; Type II spectral change
T3 construct: full-length, N-terminal His-tag kept (pET28b), expressed in E. coli BL21(DE3)

| Compound | X-ray crystal structure [1] | Kd (NHis-RosC [2]) | Kd (NHis-RosC [3]) |
| --- | --- | --- | --- |
| CC[C@H]1OC(=O)C[C@@H](O)[C@H](C)[C@@H](O[C@@H]2O[C@H](C)C[C@H](N(C)C)[C@H]2O)[C@@H](CCO)C[C@@H](C)C(=O)/C=C/[C@]2(C)O[C@H]2[C@@H]1C [RS-A] | crystal structures of the RosC in complex with RS-A and RS | – | – |
| CC[C@H]1C[C@@H](C)C(=O)/C=C/[C@]2(C)O[C@H]2[C@H](C)[C@@H](CC)OC(=O)C[C@@H](O)[C@H](C)[C@H]1O[C@@H]1O[C@H](C)C[C@H](N(C)C)[C@H]1O [RS-B] | The crystal structure of RosC bound to RS-B | 1 ± 0.2 µM | 1.4 ± 0.3 µM |
| CC[C@H]1OC(=O)C[C@@H](O)[C@H](C)[C@@H](O[C@@H]2O[C@H](C)C[C@H](N(C)C)[C@H]2O)[C@@H](CC=O)C[C@@H](C)C(=O)/C=C/[C@]2(C)O[C@H]2[C@@H]1C [RS] | crystal structures of the RosC in complex with RS-A and RS | – | – |
